Activity calls are given as the source filed them.
Key:
[1] = target: Voltage-gated inwardly rectifying potassium channel KCNH2 (Homo sapiens, UniProt Q12809); conditions: Potency;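 further: confirmatory quantitative high-throughput screen measuring inhibition of hERG channel activity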
[2] = target: T1, Bcl-2-related protein A1 (Mus musculus, UniProt Q07440); type: functional;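 further: confirmatory dose–response counterscreen on Bfl-1, used to check hits from a UBC13 polyubiquitin inhibitor campaign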
T1 sequence (Q07440 whole entry): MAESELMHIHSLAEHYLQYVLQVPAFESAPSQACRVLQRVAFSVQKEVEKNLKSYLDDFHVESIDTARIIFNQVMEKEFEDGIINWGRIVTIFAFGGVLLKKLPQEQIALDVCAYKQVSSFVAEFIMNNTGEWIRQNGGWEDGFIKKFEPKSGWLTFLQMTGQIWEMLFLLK

[3] = target: T2, Ubiquitin-conjugating enzyme E2 N (Homo sapiens, UniProt P61088); type: functional
T2 sequence (P61088 whole entry): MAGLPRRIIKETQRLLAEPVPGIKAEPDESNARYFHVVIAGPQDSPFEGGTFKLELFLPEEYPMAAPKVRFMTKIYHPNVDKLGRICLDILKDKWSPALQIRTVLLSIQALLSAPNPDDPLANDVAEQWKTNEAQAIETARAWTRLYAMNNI

[4] = target: T2, Ubiquitin-conjugating enzyme E2 N; type: functional; remark: listed apart in the source
[5] = target: CAAX prenyl protease 2 (Homo sapiens, UniProt Q9Y256); test: human Rce1 protease inhibitors, dose response, biochemical, yeast membranes, quenched-peptide fluorescence, cherry-pick (AID 588849)
CAAX prenyl protease 2 (Homo sapiens, UniProt Q9Y256), sequence (Q9Y256 whole entry): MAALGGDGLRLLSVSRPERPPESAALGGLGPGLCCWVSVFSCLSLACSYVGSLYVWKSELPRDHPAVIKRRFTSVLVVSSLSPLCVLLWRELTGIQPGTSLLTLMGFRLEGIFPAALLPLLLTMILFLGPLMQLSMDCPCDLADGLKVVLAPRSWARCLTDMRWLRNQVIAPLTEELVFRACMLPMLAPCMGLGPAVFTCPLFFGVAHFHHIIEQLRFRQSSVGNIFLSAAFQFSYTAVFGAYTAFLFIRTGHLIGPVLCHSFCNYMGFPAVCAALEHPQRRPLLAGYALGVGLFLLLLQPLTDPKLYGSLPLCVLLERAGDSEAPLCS

[6] = target: Trypsin (Sus scrofa, UniProt P00761); test: porcine trypsin inhibitors, dose response, selectivity assay for Rce1 protease inhibitor project, biochemical, quenched peptide fluorescence, cherry-pick (AID 488789)
Trypsin, sequence (P00761 whole entry): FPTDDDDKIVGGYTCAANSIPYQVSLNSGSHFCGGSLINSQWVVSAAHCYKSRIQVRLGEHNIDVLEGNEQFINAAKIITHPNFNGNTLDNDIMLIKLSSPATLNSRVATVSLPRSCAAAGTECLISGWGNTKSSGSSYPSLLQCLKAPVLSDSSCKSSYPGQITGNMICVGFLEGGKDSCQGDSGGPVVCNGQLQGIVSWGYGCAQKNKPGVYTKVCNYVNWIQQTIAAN

[7] = target: T3, CAAX prenyl protease 2 (Saccharomyces cerevisiae S288c, UniProt Q03530); type: biochemical
T3 sequence (Q03530 whole entry): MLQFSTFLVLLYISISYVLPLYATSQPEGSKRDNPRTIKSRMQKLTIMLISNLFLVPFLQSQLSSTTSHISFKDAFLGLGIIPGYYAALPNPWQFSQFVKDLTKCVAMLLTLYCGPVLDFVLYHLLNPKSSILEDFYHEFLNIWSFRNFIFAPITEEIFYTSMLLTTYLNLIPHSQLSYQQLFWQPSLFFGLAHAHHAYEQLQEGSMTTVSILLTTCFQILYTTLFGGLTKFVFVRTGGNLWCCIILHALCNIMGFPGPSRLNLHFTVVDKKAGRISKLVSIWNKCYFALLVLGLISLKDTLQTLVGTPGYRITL

[8] = test system: A-375; test: MITF: Counter assay: A375 proliferation Measured in Cell-Based System Using Plate Reader - 2084-03_Inhibitor_Dose_DryPowder_Activity. [Related pubchem assays (depositor defined):AID488944]; type: functional; conditions: Homo sapiens
[9] = test system: A-375; test: A375 melanoma cell viability reduction, dose response, counter-screen for MITF modulator project, cherry-pick samples, set 2 (AID 540335); type: functional, cell-based; conditions: Homo sapiens
[10] = test system: Streptococcus sp. 'group A'; test: growth inhibition of control SK(-) GAS strain, dose response, counter-screen for streptokinase expression inhibitor project, luminescence, kanamycin, BacTiterGlo, confirmation (AID 1900); type: functional, organism-based
[11] = inhibitors of intracellular T. cruzi replication, confirmation, NIH3T3 host cells, beta-gal luminescence (AID 2044); type: functional, cell-based;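 further: intracellular parasites grown in NIH/3T3 mouse fibroblasts as host cells; luminescent beta-galactosidase reporter signal from transgenic T. cruzi replicating inside host cells; inhibitors lower the luminescence signal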
[12] = cytotoxicity toward NIH3T3 fibroblasts, dose response, counter-screen, cell-based, ATP luminescence, mouse fibroblasts (AID 2010); type: functional;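 further: cells exposed to compound for about 90 hours before reading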
[13] = test system: Streptococcus; test: Group A Streptococcus viability loss, dose response, counter-screen for streptokinase expression inhibitor project, luminescence, BacTiterGlo (AID 1915); type: functional, organism-based;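 further: potency for reduction of bacterial viability or growth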
[14] = target: T4, Hexokinase HKDC1 (Homo sapiens, UniProt Q2TB90); test: HKDC1 hexokinase activators, dose response, biochemical, W721R variant (AID 504730); type: functional
T4 sequence (Q2TB90 whole entry): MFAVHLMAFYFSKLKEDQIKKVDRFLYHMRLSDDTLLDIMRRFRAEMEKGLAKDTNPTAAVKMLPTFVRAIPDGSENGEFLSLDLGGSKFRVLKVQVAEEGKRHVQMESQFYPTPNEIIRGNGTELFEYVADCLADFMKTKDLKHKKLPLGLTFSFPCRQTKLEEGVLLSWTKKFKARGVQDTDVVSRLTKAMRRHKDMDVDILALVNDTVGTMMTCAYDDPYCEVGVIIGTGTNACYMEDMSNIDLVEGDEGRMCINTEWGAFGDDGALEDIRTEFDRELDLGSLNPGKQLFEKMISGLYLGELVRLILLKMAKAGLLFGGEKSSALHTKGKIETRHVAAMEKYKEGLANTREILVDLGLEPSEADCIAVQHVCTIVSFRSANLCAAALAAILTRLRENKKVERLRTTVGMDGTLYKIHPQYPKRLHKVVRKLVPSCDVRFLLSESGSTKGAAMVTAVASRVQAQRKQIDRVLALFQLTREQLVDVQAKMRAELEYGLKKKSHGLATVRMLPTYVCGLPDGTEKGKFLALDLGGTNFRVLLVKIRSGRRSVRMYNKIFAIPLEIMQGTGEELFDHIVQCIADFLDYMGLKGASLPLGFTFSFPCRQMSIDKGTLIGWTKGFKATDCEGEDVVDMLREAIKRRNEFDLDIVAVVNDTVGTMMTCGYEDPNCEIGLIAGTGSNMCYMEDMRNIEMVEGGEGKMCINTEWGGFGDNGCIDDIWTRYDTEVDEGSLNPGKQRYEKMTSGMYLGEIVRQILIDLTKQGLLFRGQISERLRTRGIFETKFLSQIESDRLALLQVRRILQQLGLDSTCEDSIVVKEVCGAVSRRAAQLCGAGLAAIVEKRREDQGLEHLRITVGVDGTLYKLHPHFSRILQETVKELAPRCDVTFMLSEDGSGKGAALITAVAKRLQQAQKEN

[15] = target: T5, Hexokinase-1 (Homo sapiens, UniProt P19367); test: hexokinase 1 activators, dose response, selectivity assay for HKDC1 activator project, biochemical (AID 504762); type: functional
T5 sequence (P19367 whole entry): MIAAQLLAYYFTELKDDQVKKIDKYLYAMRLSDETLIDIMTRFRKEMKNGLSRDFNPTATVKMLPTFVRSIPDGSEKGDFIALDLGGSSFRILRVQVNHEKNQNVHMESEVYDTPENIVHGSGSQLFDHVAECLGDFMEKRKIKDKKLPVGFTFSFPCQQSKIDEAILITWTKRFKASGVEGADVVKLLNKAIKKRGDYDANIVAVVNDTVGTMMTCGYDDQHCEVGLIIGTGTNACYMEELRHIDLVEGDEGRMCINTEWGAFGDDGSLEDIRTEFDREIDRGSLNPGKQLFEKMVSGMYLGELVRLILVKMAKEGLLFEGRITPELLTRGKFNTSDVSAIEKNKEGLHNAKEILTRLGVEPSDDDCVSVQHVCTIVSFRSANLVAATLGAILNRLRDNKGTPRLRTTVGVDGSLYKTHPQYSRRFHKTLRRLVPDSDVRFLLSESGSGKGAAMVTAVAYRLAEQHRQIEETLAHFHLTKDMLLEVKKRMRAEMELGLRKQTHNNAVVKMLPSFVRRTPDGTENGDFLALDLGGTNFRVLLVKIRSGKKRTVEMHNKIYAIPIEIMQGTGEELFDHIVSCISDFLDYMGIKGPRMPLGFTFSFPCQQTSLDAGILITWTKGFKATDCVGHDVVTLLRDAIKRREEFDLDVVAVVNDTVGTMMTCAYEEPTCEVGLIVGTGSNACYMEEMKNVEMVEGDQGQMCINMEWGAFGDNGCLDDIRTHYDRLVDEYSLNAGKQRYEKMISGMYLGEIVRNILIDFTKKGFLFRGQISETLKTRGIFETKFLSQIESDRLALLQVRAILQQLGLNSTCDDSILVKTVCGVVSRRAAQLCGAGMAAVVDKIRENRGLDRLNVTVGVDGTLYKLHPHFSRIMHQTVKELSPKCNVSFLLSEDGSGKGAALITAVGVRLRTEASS

[16] = target: Heat shock protein HSP 90-alpha (Homo sapiens, UniProt P07900); type: functional, organism-based
[17] = Shn3 3'UTR reporter inhibitors, dose response, cell-based, Clone20 osteoblasts, firefly luciferase, cherry-picked (AID 624132); type: functional;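 further: firefly luciferase luminescence from reporter carrying the Shn3 3'UTR in osteoblasts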
[18] = HepG2 cell cytotoxicity, dose response, cytotoxicity control for Shn3 inhibitor project, CellTiter-Glo, cherry-picked (AID 624134); type: functional, cell-based
[19] = control 3'UTR Renilla luciferase suppression, dose response, counter-screen for Shn3 inhibitor project, cell-based, Clone20-Shn3RL, cherry-picked (AID 624133); type: functional
[20] = insulin promoter down-regulators in MIN6 cells, imaging, high-content screening, mouse beta cells (AID 1628); type: functional
[21] = cytotoxicity in MIN6 insulinoma cells, dose response, cytotoxicity control, cell-based, mouse insulinoma (AID 2122); type: functional;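 further: confirmatory high-throughput counterscreen run to flag cytotoxic compounds; mouse MIN-6 beta cells carrying an insulin promoter eGFP reporter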
[22] = test system: INS1; test: beta cell apoptosis inhibitors, cytokine rescue, dose response, luminescence, retest (AID 449756); type: functional, cell-based; conditions: Rattus norvegicus;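 further: cell death triggered by IL-1 beta plus TNF-alpha plus IFN-gamma mixture; protective hits raise ATP signal compared with cytokine alone wells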
[23] = target: Luciferin 4-monooxygenase (Photinus pyralis, UniProt P08659); test: Counter Screen for Luciferase-based Assay Positives. [Related pubchem assays: 620, 618, 411 ]
Luciferin 4-monooxygenase, sequence (P08659 whole entry): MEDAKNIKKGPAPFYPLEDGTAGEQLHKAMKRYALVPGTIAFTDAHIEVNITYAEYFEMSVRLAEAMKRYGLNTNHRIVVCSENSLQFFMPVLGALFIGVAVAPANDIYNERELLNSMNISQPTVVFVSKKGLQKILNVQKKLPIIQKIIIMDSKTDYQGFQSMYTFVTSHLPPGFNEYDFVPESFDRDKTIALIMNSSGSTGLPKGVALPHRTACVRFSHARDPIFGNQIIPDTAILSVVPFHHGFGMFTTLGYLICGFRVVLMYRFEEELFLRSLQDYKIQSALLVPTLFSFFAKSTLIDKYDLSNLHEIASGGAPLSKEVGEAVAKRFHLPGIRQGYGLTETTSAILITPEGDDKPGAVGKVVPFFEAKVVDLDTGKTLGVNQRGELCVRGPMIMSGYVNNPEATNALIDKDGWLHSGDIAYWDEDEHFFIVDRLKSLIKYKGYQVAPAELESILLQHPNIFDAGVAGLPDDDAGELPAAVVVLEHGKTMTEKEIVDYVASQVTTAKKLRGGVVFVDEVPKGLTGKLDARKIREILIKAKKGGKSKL

[24] = test system: HT-1080; test: cytotoxicity in HT1080 fibrosarcoma cells, cell-based, fluorescence readout (AID 620); type: functional; conditions: Homo sapiens
[25] = target: Cytochrome P450 2D6 (Homo sapiens, UniProt P10635);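 further: CYP2D6 member of a cytochrome P450 panel assay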
Cytochrome P450 2D6, sequence (P10635 whole entry): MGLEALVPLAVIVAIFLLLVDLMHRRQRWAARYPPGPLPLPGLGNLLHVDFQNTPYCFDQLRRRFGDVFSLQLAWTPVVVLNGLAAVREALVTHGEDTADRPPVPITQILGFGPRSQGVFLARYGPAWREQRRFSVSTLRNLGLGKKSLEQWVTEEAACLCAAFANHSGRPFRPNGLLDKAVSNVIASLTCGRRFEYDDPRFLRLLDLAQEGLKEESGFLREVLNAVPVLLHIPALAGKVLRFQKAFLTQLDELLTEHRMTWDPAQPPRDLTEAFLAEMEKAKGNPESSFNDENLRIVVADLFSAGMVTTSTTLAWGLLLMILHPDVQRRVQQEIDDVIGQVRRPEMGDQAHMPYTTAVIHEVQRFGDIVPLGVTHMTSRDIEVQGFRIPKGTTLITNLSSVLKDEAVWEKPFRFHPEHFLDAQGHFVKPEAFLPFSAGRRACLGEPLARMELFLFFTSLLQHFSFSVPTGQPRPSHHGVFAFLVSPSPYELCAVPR

[26] = cells; type: functional, cell-based
[27] = inhibitors of firefly luciferase expression or activity, dose response, H4 neuroglioma cells, luminescence (AID 1990); type: functional, cell-based
[28] = Luminescence Cell-Based Dose Response HTS to Identify Inhibitors of 5'UTR Stem-Loop Driven Prion Protein mRNA Translation in H4 Neuroglioblastoma Cells. [Related pubchem assays: 1827 (Project Summary), 1813 (Primary HTS)]; type: functional
[29] = inhibitors of SNCA 5'UTR-driven reporter translation, confirmation, H4 neuroglioma cells, luminescence (AID 1988); type: functional, cell-based
[30] = cells; type: functional, cell-based; remark: listed apart in the source
[31] = test system: HEK293; test: inhibitors of LMP1-driven NF-kB reporter, dose response, cell-based, HEK293, luciferase, cherry-pick (AID 588343); type: functional; conditions: Homo sapiens
[32] = target: T6, Latent membrane protein 1 (Human herpesvirus 4 (strain B95-8), UniProt P03230); test: TES1-eGFP NF-kB reporter inhibition versus Tet-On dsRED, dose response, selectivity assay for LMP1 NF-kB inhibitor project, imaging, HEK293T, dual-color eGFP/dsRED, cherry-picks (AID 588398); type: functional, cell-based
T6 sequence (P03230 whole entry): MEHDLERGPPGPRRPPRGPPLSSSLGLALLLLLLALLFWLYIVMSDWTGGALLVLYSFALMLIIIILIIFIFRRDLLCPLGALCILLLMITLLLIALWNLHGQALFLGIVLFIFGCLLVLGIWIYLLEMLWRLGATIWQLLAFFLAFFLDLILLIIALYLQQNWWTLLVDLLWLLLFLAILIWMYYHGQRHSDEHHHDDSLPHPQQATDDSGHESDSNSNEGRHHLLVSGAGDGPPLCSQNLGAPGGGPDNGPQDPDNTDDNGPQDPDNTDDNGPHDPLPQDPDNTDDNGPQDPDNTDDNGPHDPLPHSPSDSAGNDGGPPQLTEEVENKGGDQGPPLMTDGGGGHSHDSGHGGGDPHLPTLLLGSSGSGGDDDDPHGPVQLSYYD

Voltage-gated inwardly rectifying potassium channel KCNH2, sequence (Q12809 whole entry): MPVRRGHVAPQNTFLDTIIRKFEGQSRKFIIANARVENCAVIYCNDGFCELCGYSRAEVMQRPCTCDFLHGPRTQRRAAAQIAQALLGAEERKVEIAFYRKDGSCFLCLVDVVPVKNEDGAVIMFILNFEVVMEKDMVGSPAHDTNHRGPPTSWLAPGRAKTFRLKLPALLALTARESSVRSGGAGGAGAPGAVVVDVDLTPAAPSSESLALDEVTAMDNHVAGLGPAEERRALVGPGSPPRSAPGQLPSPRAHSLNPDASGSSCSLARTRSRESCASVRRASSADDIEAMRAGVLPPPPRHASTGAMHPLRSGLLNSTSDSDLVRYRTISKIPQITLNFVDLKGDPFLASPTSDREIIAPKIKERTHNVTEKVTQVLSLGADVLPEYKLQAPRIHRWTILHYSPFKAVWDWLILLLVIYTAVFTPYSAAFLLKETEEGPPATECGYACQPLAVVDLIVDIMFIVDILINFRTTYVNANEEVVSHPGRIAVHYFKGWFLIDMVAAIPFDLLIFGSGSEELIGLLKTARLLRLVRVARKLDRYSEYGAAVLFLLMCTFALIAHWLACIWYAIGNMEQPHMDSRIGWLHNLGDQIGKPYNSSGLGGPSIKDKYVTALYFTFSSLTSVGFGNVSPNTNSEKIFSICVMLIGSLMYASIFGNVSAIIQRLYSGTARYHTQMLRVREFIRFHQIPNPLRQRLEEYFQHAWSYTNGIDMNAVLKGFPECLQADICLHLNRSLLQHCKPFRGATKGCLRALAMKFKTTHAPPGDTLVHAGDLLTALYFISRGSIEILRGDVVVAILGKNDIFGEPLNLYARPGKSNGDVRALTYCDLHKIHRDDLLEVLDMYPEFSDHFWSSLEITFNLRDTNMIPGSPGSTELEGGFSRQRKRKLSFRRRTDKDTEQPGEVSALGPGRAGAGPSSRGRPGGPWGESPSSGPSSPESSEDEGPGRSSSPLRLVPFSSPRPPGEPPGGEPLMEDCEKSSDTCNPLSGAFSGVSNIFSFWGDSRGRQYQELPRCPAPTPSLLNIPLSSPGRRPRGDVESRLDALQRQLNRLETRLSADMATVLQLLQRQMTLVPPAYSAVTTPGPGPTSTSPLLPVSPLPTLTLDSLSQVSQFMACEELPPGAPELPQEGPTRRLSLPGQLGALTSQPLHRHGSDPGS

CC/C=C/C/C=C/C/C=C/CCCCCCCC(=O)OCC
AC50 [1]: 28.2 µM (inconclusive)

Cc1onc(-c2ccccc2)c1C(=O)Nc1cccc2nsnc12
IC50 [2]: > 20 µM (inactive)
IC50 [3]: 15.6 µM (active)
IC50 [4]: > 20 µM (inactive)

O=C(COc1ccc2ccc(=O)oc2c1)N1CCC(C(=O)O)(c2ccccc2)CC1
AC50 [5]: 98.6 µM (active)

COc1ccccc1CNC(=O)c1ccccc1N
AC50 [6]: 6.1 µM (active)
AC50 [7]: 6.36 µM (active)
AC50 [5]: 4.31 µM (active)

CCOC(=O)c1cc(-c2ccc(OC)cc2)[nH]n1
AC50 [8]: > 35 µM (active)
AC50 [9]: > 35 µM (active)

COc1ccc(/C=C/C(=O)NC(=S)NNC(=O)c2cnccn2)cc1
EC50 [10]: 4.07 µM (active)
EC50 [11]: 0.955 µM (active)
EC50 [12]: 15.2 µM (active)
EC50 [13]: 6.88 µM (active)
EC50 [14]: 2.23 µM (active)
EC50 [15]: > 80 µM (inactive)
AC50 [16]: 1.95 µM (active)
AC50 [17]: 15.4 µM (active)
AC50 [18]: 42.4 µM (active)
AC50 [19]: 2.05 µM (active)

O=C(CCCCCn1c(=O)[nH]c2ccccc2c1=O)NCCc1c[nH]c2ccccc12
IC50 [2]: > 20 µM (inactive)
IC50 [3]: 19.3 µM (active)
IC50 [4]: 18.1 µM (active)

Nc1ccc(Br)cc1-c1nc2ccccc2nc1O
IC50 [20]: < 0.25 µM (active)
IC50 [21]: < 0.25 µM (active)
AC50 [22]: 0.63 µM (active)

CCNC1=NN=C(c2ccc(C)cc2)CS1
EC50 [23]: 1.03 µM (active)
EC50 [24]: > 50 µM (not active)
EC50 [14]: 51.6 µM (inactive)
EC50 [15]: 63.1 µM (inactive)
AC50 [25]: 14.1 µM (inconclusive)

CCCCCCCCCCCCCCC[C@H](O)[C@H](N)CO
AC50 [1]: 35.5 µM (inconclusive)

COc1ccc(C(=O)CCNc2ccc(F)cc2)cc1
EC50 [26]: > 350 µM (not active)
AC50 [8]: > 35 µM (active)
AC50 [9]: > 35 µM (active)

O=C(CCc1ccccc1)NC(c1cccs1)c1cc(Cl)c2cccnc2c1O (configuration not stated)
EC50 [27]: 9.65 µM (active)
IC50 [20]: 1.77 µM (active)
EC50 [26]: 9.12 µM (active)
EC50 [28]: 0.219 µM (active)
IC50 [21]: 1.78 µM (active)
EC50 [29]: 4.12 µM (inconclusive)
EC50 [11]: 0.536 µM (active)
EC50 [30]: > 350 µM (not active)
EC50 [12]: 1.61 µM (active)
AC50 [31]: 9.35 µM (active)
AC50 [16]: 16.9 µM (active)
AC50 [32]: 10.2 µM (active)

From ChEMBL document CHEMBL1201862, “PubChem BioAssay data set” (2004)
